Values quoted from earlier work, collected in paper PMC6150237, “Study of Absorption Characteristics of the Total Saponins from Radix Ilicis Pubescentis in an In Situ Single-Pass Intestinal Perfusion (SPIP) Rat Model by Using Ultra Performance Liquid Chromatography (UPLC)” (Molecules : A Journal of Synthetic Chemistry and Natural …, 2017).

Conditions: cited from earlier work

## C[C@@H]1CC[C@]2(C(=O)O)CC[C@]3(C)C(=CC[C@@H]4[C@@]5(C)CC[C@H](O)[C@@](C)(C(=O)O)[C@@H]5CC[C@]43C)[C@@H]2[C@]1(C)O [C1, ilexgenin A]
Calculated based on literature data
  absolute oral bioavailability: low value
Oral administration of C1, 100 mg/kg
  maximum plasma concentration: approximately 350 ng·mL^−1
